Tested on: southern armyworm (Spodopetra eridania Cramer)
Assay: Mite/insect screen, sprayed squash leaves (SAW)
Type: in vivo
Details: Spodoptera eridania, percent mortality; spray rate 200 ppm; read-out: SAW RESULTS %
Method in brief: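 For the armyworm test, two uninfested sprayed leaves were excised, once dry for an hour, and placed in a Petri dish holding larvae. Spray solutions came from an emulsifier-containing 50:50 acetone/alcohol formulation diluted with water and were applied to runoff.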

Row | Compound | mortality at 200 ppm [%]
1 | CCCCOc1ccc(CCOc2ncnc3c(F)cccc23)cc1 [Example 156, 8-fluoro-4-[2-(4-butoxyphenyl)ethoxy]quinazoline] | 60
2 | CCOc1ccc(CCCOc2ncnc3ccccc23)cc1 [Example 158, 4-[3-(4-ethoxyphenyl)propoxy]quinazoline] | 0
3 | Fc1ccc(CCOc2ncnc3c(F)cccc23)c(F)c1 [Example 159, 8-fluoro-4-[2-(2,4-difluorophenyl)ethoxy]quinazoline] | 0
4 | CC(COc1ncnc2ccccc12)c1ccc(Oc2ccccc2)cc1 (centres unmarked) [Example 161, 4-[2-(4-phenoxyphenyl)propoxy]quinazoline] | 20
5 | Fc1ccccc1Oc1ccc(CCOc2ncnc3ccccc23)cc1 [Example 162, 4-(2-[4-(2-fluorophenoxy)phenyl]ethoxy]quinazoline] | 60

Same assay, conditions: Spodoptera eridania, percent mortality; spray rate 400 ppm; read-out: SAW RESULTS %

Row | Compound | mortality at 400 ppm [%]
6 | CCCCOc1ccc(CCOc2ncnc3c(F)cccc23)cc1 [Example 156, 8-fluoro-4-[2-(4-butoxyphenyl)ethoxy]quinazoline] | 0
7 | CCOc1ccc(CCCOc2ncnc3ccccc23)cc1 [Example 158, 4-[3-(4-ethoxyphenyl)propoxy]quinazoline] | 0
8 | Fc1ccc(CCOc2ncnc3c(F)cccc23)c(F)c1 [Example 159, 8-fluoro-4-[2-(2,4-difluorophenyl)ethoxy]quinazoline] | 0
9 | CC(COc1ncnc2ccccc12)c1ccc(Oc2ccccc2)cc1 (centres unmarked) [Example 161, 4-[2-(4-phenoxyphenyl)propoxy]quinazoline] | 100
10 | Fc1ccccc1Oc1ccc(CCOc2ncnc3ccccc23)cc1 [Example 162, 4-(2-[4-(2-fluorophenoxy)phenyl]ethoxy]quinazoline] | 0

Tested on: Twospotted spider mites (Tetranychus urticae Koch)
Assay: Mite/insect screen, sprayed squash cotyledons (SM)
Type: in vivo
Details: Tetranychus urticae, percent mortality; spray rate 200 ppm; read-out: SM RESULTS %
Method in brief: (§1)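 Compounds dissolved in acetone/alcohol with TOXIMUL R/S emulsifiers, diluted with water to test concentrations, and sprayed to runoff on both leaf surfaces at 10 psi, then dried 1 h. Excised treated squash leaves given southern armyworm larvae; aphid and spider mite tests on sprayed squash cotyledons. Percent mortality and phytotoxicity scored after standard exposure.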

Row | Compound | mortality at 200 ppm [%]
11 | CCCCOc1ccc(CCOc2ncnc3c(F)cccc23)cc1 [Example 156, 8-fluoro-4-[2-(4-butoxyphenyl)ethoxy]quinazoline] | 100
12 | CCOc1ccc(CCCOc2ncnc3ccccc23)cc1 [Example 158, 4-[3-(4-ethoxyphenyl)propoxy]quinazoline] | 0
13 | Fc1ccc(CCOc2ncnc3c(F)cccc23)c(F)c1 [Example 159, 8-fluoro-4-[2-(2,4-difluorophenyl)ethoxy]quinazoline] | 90
14 | CC(COc1ncnc2ccccc12)c1ccc(Oc2ccccc2)cc1 (centres unmarked) [Example 161, 4-[2-(4-phenoxyphenyl)propoxy]quinazoline] | 70
15 | Fc1ccccc1Oc1ccc(CCOc2ncnc3ccccc23)cc1 [Example 162, 4-(2-[4-(2-fluorophenoxy)phenyl]ethoxy]quinazoline] | 100

Same assay, conditions: Tetranychus urticae, percent mortality; spray rate 400 ppm; read-out: SM RESULTS %

Row | Compound | mortality at 400 ppm [%]
16 | CCCCOc1ccc(CCOc2ncnc3c(F)cccc23)cc1 [Example 156, 8-fluoro-4-[2-(4-butoxyphenyl)ethoxy]quinazoline] | 80
17 | CCOc1ccc(CCCOc2ncnc3ccccc23)cc1 [Example 158, 4-[3-(4-ethoxyphenyl)propoxy]quinazoline] | 60
18 | Fc1ccc(CCOc2ncnc3c(F)cccc23)c(F)c1 [Example 159, 8-fluoro-4-[2-(2,4-difluorophenyl)ethoxy]quinazoline] | 80
19 | CC(COc1ncnc2ccccc12)c1ccc(Oc2ccccc2)cc1 (centres unmarked) [Example 161, 4-[2-(4-phenoxyphenyl)propoxy]quinazoline] | 0
20 | Fc1ccccc1Oc1ccc(CCOc2ncnc3ccccc23)cc1 [Example 162, 4-(2-[4-(2-fluorophenoxy)phenyl]ethoxy]quinazoline] | 100

Tested on: Erysiphe graminis tritici (powdery mildew)
Assay: Greenhouse Test 1, foliar spray fungicide screen (POWD MDEW), host wheat
Type: in vivo
Details: disease control rating, 400 ppm (+++ at 100 ppm)

Row | Compound | POWD MDEW
21 | CCCCOc1ccc(CCOc2ncnc3c(F)cccc23)cc1 [Example 156, 8-fluoro-4-[2-(4-butoxyphenyl)ethoxy]quinazoline] | +++ (+++ = 90-100% control at 100 ppm)
22 | CCOc1ccc(CCCOc2ncnc3ccccc23)cc1 [Example 158, 4-[3-(4-ethoxyphenyl)propoxy]quinazoline] | + (+ = 20-89% control at 400 ppm)
23 | Fc1ccc(CCOc2ncnc3c(F)cccc23)c(F)c1 [Example 159, 8-fluoro-4-[2-(2,4-difluorophenyl)ethoxy]quinazoline] | +++ (+++ = 90-100% control at 100 ppm)
24 | CC(COc1ncnc2ccccc12)c1ccc(Oc2ccccc2)cc1 (centres unmarked) [Example 161, 4-[2-(4-phenoxyphenyl)propoxy]quinazoline] | + (+ = 20-89% control at 400 ppm)
25 | Fc1ccccc1Oc1ccc(CCOc2ncnc3ccccc23)cc1 [Example 162, 4-(2-[4-(2-fluorophenoxy)phenyl]ethoxy]quinazoline] | +++ (+++ = 90-100% control at 100 ppm)

Tested on: Botrytis cinerea (gray mold)
Assay: Greenhouse Test 1, foliar spray fungicide screen (GRAY MOLD), host grape berries
Type: in vivo
Details: disease control rating, 400 ppm (+++ at 100 ppm)

Row | Compound | GRAY MOLD
26 | CCCCOc1ccc(CCOc2ncnc3c(F)cccc23)cc1 [Example 156, 8-fluoro-4-[2-(4-butoxyphenyl)ethoxy]quinazoline] | - (- = 0-19% control at 400 ppm)
27 | CCOc1ccc(CCCOc2ncnc3ccccc23)cc1 [Example 158, 4-[3-(4-ethoxyphenyl)propoxy]quinazoline] | - (- = 0-19% control at 400 ppm)
28 | Fc1ccc(CCOc2ncnc3c(F)cccc23)c(F)c1 [Example 159, 8-fluoro-4-[2-(2,4-difluorophenyl)ethoxy]quinazoline] | - (- = 0-19% control at 400 ppm)
29 | CC(COc1ncnc2ccccc12)c1ccc(Oc2ccccc2)cc1 (centres unmarked) [Example 161, 4-[2-(4-phenoxyphenyl)propoxy]quinazoline] | - (- = 0-19% control at 400 ppm)
30 | Fc1ccccc1Oc1ccc(CCOc2ncnc3ccccc23)cc1 [Example 162, 4-(2-[4-(2-fluorophenoxy)phenyl]ethoxy]quinazoline] | - (- = 0-19% control at 400 ppm)

Tested on: Pseudoperonospora cubensis (downy mildew)
Assay: Greenhouse Test 1, foliar spray fungicide screen (DOWN MDEW), host squash
Type: in vivo
Details: disease control rating, 400 ppm (+++ at 100 ppm)

Row | Compound | DOWN MDEW
31 | CCCCOc1ccc(CCOc2ncnc3c(F)cccc23)cc1 [Example 156, 8-fluoro-4-[2-(4-butoxyphenyl)ethoxy]quinazoline] | +++ (+++ = 90-100% control at 100 ppm)
32 | CCOc1ccc(CCCOc2ncnc3ccccc23)cc1 [Example 158, 4-[3-(4-ethoxyphenyl)propoxy]quinazoline] | +++ (+++ = 90-100% control at 100 ppm)
33 | Fc1ccc(CCOc2ncnc3c(F)cccc23)c(F)c1 [Example 159, 8-fluoro-4-[2-(2,4-difluorophenyl)ethoxy]quinazoline] | +++ (+++ = 90-100% control at 100 ppm)
34 | CC(COc1ncnc2ccccc12)c1ccc(Oc2ccccc2)cc1 (centres unmarked) [Example 161, 4-[2-(4-phenoxyphenyl)propoxy]quinazoline] | - (- = 0-19% control at 400 ppm)
35 | Fc1ccccc1Oc1ccc(CCOc2ncnc3ccccc23)cc1 [Example 162, 4-(2-[4-(2-fluorophenoxy)phenyl]ethoxy]quinazoline] | +++ (+++ = 90-100% control at 100 ppm)

Tested on: Southern corn rootworm (Diabrotica undecimpuctata howardi Barber)
Assay: Mite/insect screen, soil treatment (CRW)
Type: in vivo
Details: Diabrotica; percent mortality; soil treatment, CRW rate 12.00 ppm; read-out: CRW RESULTS %
Method in brief: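 Compounds dissolved in acetone/alcohol (50:50) with Toximul R/S emulsifiers, diluted with water. Soil (15 g, with presoaked corn seed) treated with 1 mL test solution, dried 6–12 h, then five 2–3 instar larvae added; held at 23°C. Percent mortality and phytotoxicity scored after standard exposure periods.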

Row | Compound | mortality at 12 ppm [%]
36 | CCCCOc1ccc(CCOc2ncnc3c(F)cccc23)cc1 [Example 156, 8-fluoro-4-[2-(4-butoxyphenyl)ethoxy]quinazoline] | 0
37 | CCOc1ccc(CCCOc2ncnc3ccccc23)cc1 [Example 158, 4-[3-(4-ethoxyphenyl)propoxy]quinazoline] | 0
38 | Fc1ccc(CCOc2ncnc3c(F)cccc23)c(F)c1 [Example 159, 8-fluoro-4-[2-(2,4-difluorophenyl)ethoxy]quinazoline] | 0
39 | CC(COc1ncnc2ccccc12)c1ccc(Oc2ccccc2)cc1 (centres unmarked) [Example 161, 4-[2-(4-phenoxyphenyl)propoxy]quinazoline] | 0
40 | Fc1ccccc1Oc1ccc(CCOc2ncnc3ccccc23)cc1 [Example 162, 4-(2-[4-(2-fluorophenoxy)phenyl]ethoxy]quinazoline] | 0

Same assay, conditions: Diabrotica; percent mortality; soil treatment, CRW rate 24.00 ppm; read-out: CRW RESULTS %

Row | Compound | mortality at 24 ppm [%]
41 | CCCCOc1ccc(CCOc2ncnc3c(F)cccc23)cc1 [Example 156, 8-fluoro-4-[2-(4-butoxyphenyl)ethoxy]quinazoline] | 0
42 | CCOc1ccc(CCCOc2ncnc3ccccc23)cc1 [Example 158, 4-[3-(4-ethoxyphenyl)propoxy]quinazoline] | 0
43 | Fc1ccc(CCOc2ncnc3c(F)cccc23)c(F)c1 [Example 159, 8-fluoro-4-[2-(2,4-difluorophenyl)ethoxy]quinazoline] | 0
44 | CC(COc1ncnc2ccccc12)c1ccc(Oc2ccccc2)cc1 (centres unmarked) [Example 161, 4-[2-(4-phenoxyphenyl)propoxy]quinazoline] | 100
45 | Fc1ccccc1Oc1ccc(CCOc2ncnc3ccccc23)cc1 [Example 162, 4-(2-[4-(2-fluorophenoxy)phenyl]ethoxy]quinazoline] | 100

Tested on: Pyricularia oryzae (rice blast)
Assay: not given
Type: in vivo
Details: disease control rating, foliar spray, host rice; 400 ppm (+++ at 100 ppm)

Row | Compound | RICE BLAST
46 | CCCCOc1ccc(CCOc2ncnc3c(F)cccc23)cc1 [Example 156, 8-fluoro-4-[2-(4-butoxyphenyl)ethoxy]quinazoline] | +++ (+++ = 90-100% control at 100 ppm)
47 | CCOc1ccc(CCCOc2ncnc3ccccc23)cc1 [Example 158, 4-[3-(4-ethoxyphenyl)propoxy]quinazoline] | ++ (++ = 90-100% control at 400 ppm)
48 | Fc1ccc(CCOc2ncnc3c(F)cccc23)c(F)c1 [Example 159, 8-fluoro-4-[2-(2,4-difluorophenyl)ethoxy]quinazoline] | +++ (+++ = 90-100% control at 100 ppm)
49 | CC(COc1ncnc2ccccc12)c1ccc(Oc2ccccc2)cc1 (centres unmarked) [Example 161, 4-[2-(4-phenoxyphenyl)propoxy]quinazoline] | + (+ = 20-89% control at 400 ppm)
50 | Fc1ccccc1Oc1ccc(CCOc2ncnc3ccccc23)cc1 [Example 162, 4-(2-[4-(2-fluorophenoxy)phenyl]ethoxy]quinazoline] | +++ (+++ = 90-100% control at 100 ppm)

Tested on: melon aphids (Aphis gossypii Glover)
Assay: Mite/insect screen, sprayed squash cotyledons (MA)
Type: in vivo
Details: Aphis gossypii, percent mortality; spray rate 200 ppm; read-out: MA RESULTS %
Method in brief: as §1

Row | Compound | mortality at 200 ppm [%]
51 | CCCCOc1ccc(CCOc2ncnc3c(F)cccc23)cc1 [Example 156, 8-fluoro-4-[2-(4-butoxyphenyl)ethoxy]quinazoline] | 100
52 | CCOc1ccc(CCCOc2ncnc3ccccc23)cc1 [Example 158, 4-[3-(4-ethoxyphenyl)propoxy]quinazoline] | 0
53 | Fc1ccc(CCOc2ncnc3c(F)cccc23)c(F)c1 [Example 159, 8-fluoro-4-[2-(2,4-difluorophenyl)ethoxy]quinazoline] | 80
54 | CC(COc1ncnc2ccccc12)c1ccc(Oc2ccccc2)cc1 (centres unmarked) [Example 161, 4-[2-(4-phenoxyphenyl)propoxy]quinazoline] | 30
55 | Fc1ccccc1Oc1ccc(CCOc2ncnc3ccccc23)cc1 [Example 162, 4-(2-[4-(2-fluorophenoxy)phenyl]ethoxy]quinazoline] | 80

Same assay, conditions: Aphis gossypii, percent mortality; spray rate 400 ppm; read-out: MA RESULTS %

Row | Compound | mortality at 400 ppm [%]
56 | CCCCOc1ccc(CCOc2ncnc3c(F)cccc23)cc1 [Example 156, 8-fluoro-4-[2-(4-butoxyphenyl)ethoxy]quinazoline] | 100
57 | CCOc1ccc(CCCOc2ncnc3ccccc23)cc1 [Example 158, 4-[3-(4-ethoxyphenyl)propoxy]quinazoline] | 40
58 | Fc1ccc(CCOc2ncnc3c(F)cccc23)c(F)c1 [Example 159, 8-fluoro-4-[2-(2,4-difluorophenyl)ethoxy]quinazoline] | 100
59 | CC(COc1ncnc2ccccc12)c1ccc(Oc2ccccc2)cc1 (centres unmarked) [Example 161, 4-[2-(4-phenoxyphenyl)propoxy]quinazoline] | 0
60 | Fc1ccccc1Oc1ccc(CCOc2ncnc3ccccc23)cc1 [Example 162, 4-(2-[4-(2-fluorophenoxy)phenyl]ethoxy]quinazoline] | 80

Tested on: Puccinia recondita tritici (leaf rust)
Assay: Greenhouse Test 1, foliar spray fungicide screen (LEAF RUST), host wheat
Type: in vivo
Details: disease control rating, 400 ppm (+++ at 100 ppm)

Row | Compound | LEAF RUST
61 | CCCCOc1ccc(CCOc2ncnc3c(F)cccc23)cc1 [Example 156, 8-fluoro-4-[2-(4-butoxyphenyl)ethoxy]quinazoline] | +++ (+++ = 90-100% control at 100 ppm)
62 | CCOc1ccc(CCCOc2ncnc3ccccc23)cc1 [Example 158, 4-[3-(4-ethoxyphenyl)propoxy]quinazoline] | + (+ = 20-89% control at 400 ppm)
63 | Fc1ccc(CCOc2ncnc3c(F)cccc23)c(F)c1 [Example 159, 8-fluoro-4-[2-(2,4-difluorophenyl)ethoxy]quinazoline] | +++ (+++ = 90-100% control at 100 ppm)
64 | CC(COc1ncnc2ccccc12)c1ccc(Oc2ccccc2)cc1 (centres unmarked) [Example 161, 4-[2-(4-phenoxyphenyl)propoxy]quinazoline] | ++ (++ = 90-100% control at 400 ppm)
65 | Fc1ccccc1Oc1ccc(CCOc2ncnc3ccccc23)cc1 [Example 162, 4-(2-[4-(2-fluorophenoxy)phenyl]ethoxy]quinazoline] | +++ (+++ = 90-100% control at 100 ppm)
